Test results: US20250382261A1 (The Broad Institute, Inc., priority 2021, published 2025)

Legend:
[1] = In vitro metabolic stability, human; assay type: in vitro ADME; settings: read-out: In vitro metabolic stability (t1/2, min), human
hERG channel = hERG channel (Homo sapiens, UniProt Q12809)
Protocol: hERG channel assays. All assays were performed by Cyprotex Ltd. using an eCiphrCardio assay. CDI iCell® cardiomyocytes are plated onto fibronectin coated 48 well microelectrode array plates at a density of 50,000 cells per well in 5 μl iCell® plating medium. After 2 h, 300 μl of maintenance medium is added to each well. The plate is incubated for 2 days, and then the medium is completely changed to 500 μl of maintenance medium. The cells are incubated for an additional 3 days until a stable beating phenotype is achieved and the cells are ready for drug treatment. The medium is changed the day before dosing. […] The activity of cells in a 48-well microelectrode array is recorded prior to treatment (baseline) and at 1- and 48-hours post-treatment using the Axion Biosystems Maestro MEA system. The recording conditions are at 37° C. with 5% CO2 using the standard cardiac settings on the Axion Biosystems Maestro Axis software version 2.1. The results are analyzed with the Axion Biosystem software.

Sequence of hERG channel (Q12809 whole entry): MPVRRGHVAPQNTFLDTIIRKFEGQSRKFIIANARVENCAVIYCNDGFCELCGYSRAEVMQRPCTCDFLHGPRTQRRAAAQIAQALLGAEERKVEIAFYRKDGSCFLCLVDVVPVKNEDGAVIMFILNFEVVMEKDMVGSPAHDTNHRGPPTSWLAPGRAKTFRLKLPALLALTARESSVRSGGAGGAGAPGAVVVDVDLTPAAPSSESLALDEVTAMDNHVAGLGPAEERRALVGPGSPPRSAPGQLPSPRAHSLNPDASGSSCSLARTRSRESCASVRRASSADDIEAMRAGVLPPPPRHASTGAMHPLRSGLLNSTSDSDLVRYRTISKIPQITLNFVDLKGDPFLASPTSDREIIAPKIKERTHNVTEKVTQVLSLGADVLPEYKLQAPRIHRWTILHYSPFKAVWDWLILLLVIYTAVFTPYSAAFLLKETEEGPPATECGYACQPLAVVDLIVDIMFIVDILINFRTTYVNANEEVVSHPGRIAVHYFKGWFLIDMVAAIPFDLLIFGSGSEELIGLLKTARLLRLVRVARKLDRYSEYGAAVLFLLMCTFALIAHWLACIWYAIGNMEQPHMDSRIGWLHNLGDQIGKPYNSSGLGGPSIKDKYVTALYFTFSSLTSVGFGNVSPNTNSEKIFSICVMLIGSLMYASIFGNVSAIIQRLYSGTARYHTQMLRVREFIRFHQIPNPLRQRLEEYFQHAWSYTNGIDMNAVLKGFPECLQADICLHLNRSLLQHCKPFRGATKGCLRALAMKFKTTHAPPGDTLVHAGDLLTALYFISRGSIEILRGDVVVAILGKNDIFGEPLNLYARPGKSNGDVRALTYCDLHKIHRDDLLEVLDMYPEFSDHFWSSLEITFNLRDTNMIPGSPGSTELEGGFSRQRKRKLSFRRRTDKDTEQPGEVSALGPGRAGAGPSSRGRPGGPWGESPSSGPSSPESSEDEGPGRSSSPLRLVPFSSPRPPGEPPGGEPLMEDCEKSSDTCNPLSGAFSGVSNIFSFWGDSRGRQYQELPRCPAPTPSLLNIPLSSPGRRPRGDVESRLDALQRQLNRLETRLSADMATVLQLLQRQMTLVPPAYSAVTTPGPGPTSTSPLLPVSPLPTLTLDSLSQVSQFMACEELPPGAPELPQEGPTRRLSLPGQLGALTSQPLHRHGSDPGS

Question: For `N=C(N)c1ccc(OCCN(CCOc2ccc(C(=N)N)cc2)c2ccccc2)cc1` [Analog P35], which half-life [1] is on record?
Answer: The half-life was greater than 145 min.

Question: And the “Effect on beating at 10 μM” value (hERG channel)?
Answer: The value was “loss of all detectable beating”.

Question: What about the “Direct hERG channel inhibition 1 h after exposure” value (hERG channel; human, 1 h) of the same compound?
Answer: Its value is “Neither pentamidine nor P35 directly inhibited the hERG channel”.
